# Source: US10597388B2, “Pyridazinone herbicides” (FMC CORPORATION, priority 2014, dated 2020)
# Assays:
# Experiment in all cases: Test C greenhouse herbicide test, pre- and postemergence
# Assay type in all cases: in vivo
# [1] = test system: barnyardgrass (Echinochloa crus-galli)
# Procedure, shortened: (§1)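 Two application timings: at sowing into a soil/sand blend, and on 2–18 cm seedlings in peat-vermiculite potting mix. A non-phytotoxic, surfactant-containing solvent carried the compounds. Plants were compared with controls and rated visually on 0–100 after 13–15 d.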
# [2] = test system: blackgrass (Alopecurus myosuroides)
# Procedure, shortened: as §1
# corn (Zea mays) = test system: corn (Zea mays)
# Procedure, shortened: as §1
# [3] = test system: foxtail, giant (giant foxtail, Setaria faberii)
# Procedure, shortened: as §1
# [4] = test system: galium (catchweed bedstraw, Galium aparine)
# Procedure, shortened: as §1
# [5] = test system: johnsongrass (Sorghum halepense)
# Procedure, shortened: as §1
# [6] = test system: lambsquarters (Chenopodium album)
# Procedure, shortened: as §1
# [7] = test system: morningglory (Ipomoea coccinea)
# Procedure, shortened: as §1
# [8] = test system: nutsedge, yellow (yellow nutsedge, Cyperus esculentus)
# Procedure, shortened: as §1
# [9] = test system: pigweed (Amaranthus retroflexus)
# Procedure, shortened: as §1
# [10] = test system: ragweed (common ragweed, Ambrosia elatior)
# Procedure, shortened: as §1
# [11] = test system: ryegrass, Italian (Italian ryegrass, Lolium multiflorum)
# Procedure, shortened: as §1
# soybean (Glycine max) = test system: soybean (Glycine max)
# Procedure, shortened: as §1
# [12] = test system: velvetleaf (Abutilon theophrasti)
# Procedure, shortened: as §1
# [13] = test system: waterhemp (common waterhemp, Amaranthus rudis)
# Procedure, shortened: as §1
# [14] = test system: wheat (winter wheat, Triticum aestivum)
# Procedure, shortened: as §1
# [15] = Postemergence, 31 g ai/ha, 0 to 100 scale (0 no effect, 100 complete control)
# [16] = Postemergence, 125 g ai/ha, scale 0 to 100, 0 is no effect, 100 is complete control
# [17] = Postemergence, 250 g ai/ha, scale 0 to 100, 0 no effect, 100 complete control, 13 to 15 d
# [18] = Preemergence, 31 g ai/ha, scale 0 to 100, 0 is no effect, 100 is complete control
# [19] = Preemergence, 62 g ai/ha, scale 0 to 100, 0 is no effect, 100 is complete control
# [20] = Preemergence, 125 g ai/ha, scale 0 to 100, 0 is no effect, 100 is complete control
# [21] = Preemergence, 250 g ai/ha, scale 0 to 100 (0 no effect, 100 complete control)
# [22] = postemergence, 62 g ai/ha, scale 0 to 100, 0 no effect, 100 complete control
smiles,measurement,setting,value
Cc1ccc2ccc(C)c(-c3c(O)c(C)nn(C)c3=O)c2c1 [Compound 60],Barnyardgrass plant response rating,[1]; [15],20
same,"Plant response rating, Barnyardgrass",[1]; [16],35
same,"Plant response rating, Barnyardgrass",[1]; [17],65
same,"Plant response rating, Barnyardgrass",[1]; [18],10
same,"Plant response rating, Barnyardgrass",[1]; [19],40
same,"Plant response rating, Barnyardgrass",[1]; [20],85
same,Barnyardgrass plant response rating,[1]; [21],90
same,Barnyardgrass plant response rating,[1]; [22],25
same,Blackgrass plant response rating,[2]; [15],50
same,"Plant response rating, Blackgrass",[2]; [16],85
same,"Plant response rating, Blackgrass",[2]; [17],90
same,"Plant response rating, Blackgrass",[2]; [18],90
same,"Plant response rating, Blackgrass",[2]; [19],90
same,"Plant response rating, Blackgrass",[2]; [20],90
same,Blackgrass plant response rating,[2]; [21],90
same,Blackgrass plant response rating,[2]; [22],60
same,Corn plant response rating,corn (Zea mays); [15],10
same,"Plant response rating, Corn",corn (Zea mays); [16],30
same,"Plant response rating, Corn",corn (Zea mays); [17],35
same,"Plant response rating, Corn",corn (Zea mays); [18],0
same,"Plant response rating, Corn",corn (Zea mays); [19],10
same,"Plant response rating, Corn",corn (Zea mays); [20],30
same,Corn plant response rating,corn (Zea mays); [21],45
same,Corn plant response rating,corn (Zea mays); [22],25
same,"Foxtail, Giant plant response rating",[3]; [15],45
same,"Plant response rating, Foxtail, Giant",[3]; [16],70
same,"Plant response rating, Foxtail, Giant",[3]; [17],90
same,"Plant response rating, Foxtail, Giant",[3]; [18],75
same,"Plant response rating, Foxtail, Giant",[3]; [19],85
same,"Plant response rating, Foxtail, Giant",[3]; [20],100
same,"Foxtail, Giant plant response rating",[3]; [21],100
same,"Foxtail, Giant plant response rating",[3]; [22],60
same,Galium plant response rating,[4]; [15],100
same,"Plant response rating, Galium",[4]; [16],100
same,"Plant response rating, Galium",[4]; [17],100
same,"Plant response rating, Galium",[4]; [18],90
same,"Plant response rating, Galium",[4]; [19],95
same,"Plant response rating, Galium",[4]; [20],98
same,Galium plant response rating,[4]; [21],100
same,Galium plant response rating,[4]; [22],100
same,Johnsongrass plant response rating,[5]; [15],5
same,"Plant response rating, Johnsongrass",[5]; [16],55
same,"Plant response rating, Johnsongrass",[5]; [17],45
same,"Plant response rating, Johnsongrass",[5]; [18],5
same,"Plant response rating, Johnsongrass",[5]; [19],20
same,"Plant response rating, Johnsongrass",[5]; [20],40
same,Johnsongrass plant response rating,[5]; [21],60
same,Johnsongrass plant response rating,[5]; [22],35
same,Lambsquarters plant response rating,[6]; [15],85
same,"Plant response rating, Lambsquarters",[6]; [16],95
same,"Plant response rating, Lambsquarters",[6]; [17],100
same,"Plant response rating, Lambsquarters",[6]; [18],80
same,"Plant response rating, Lambsquarters",[6]; [19],85
same,"Plant response rating, Lambsquarters",[6]; [20],95
same,Lambsquarters plant response rating,[6]; [21],90
same,Lambsquarters plant response rating,[6]; [22],90
same,Morningglory plant response rating,[7]; [15],90
same,"Plant response rating, Morningglory",[7]; [16],100
same,"Plant response rating, Morningglory",[7]; [17],100
same,"Plant response rating, Morningglory",[7]; [18],85
same,"Plant response rating, Morningglory",[7]; [19],98
same,"Plant response rating, Morningglory",[7]; [20],98
same,Morningglory plant response rating,[7]; [21],100
same,Morningglory plant response rating,[7]; [22],98
same,"Nutsedge, Yellow plant response rating",[8]; [15],85
same,"Plant response rating, Nutsedge, Yellow",[8]; [16],90
same,"Plant response rating, Nutsedge, Yellow",[8]; [17],95
same,"Plant response rating, Nutsedge, Yellow",[8]; [18],45
same,"Plant response rating, Nutsedge, Yellow",[8]; [19],45
same,"Plant response rating, Nutsedge, Yellow",[8]; [20],85
same,"Nutsedge, Yellow plant response rating",[8]; [21],85
same,"Nutsedge, Yellow plant response rating",[8]; [22],85
same,Pigweed plant response rating,[9]; [15],85
same,"Plant response rating, Pigweed",[9]; [16],95
same,"Plant response rating, Pigweed",[9]; [17],98
same,"Plant response rating, Pigweed",[9]; [18],100
same,"Plant response rating, Pigweed",[9]; [19],100
same,"Plant response rating, Pigweed",[9]; [20],100
same,Pigweed plant response rating,[9]; [21],100
same,Pigweed plant response rating,[9]; [22],85
same,Ragweed plant response rating,[10]; [15],85
same,"Plant response rating, Ragweed",[10]; [16],98
same,"Plant response rating, Ragweed",[10]; [17],100
same,"Plant response rating, Ragweed",[10]; [18],80
same,"Plant response rating, Ragweed",[10]; [19],90
same,"Plant response rating, Ragweed",[10]; [20],95
same,Ragweed plant response rating,[10]; [21],95
same,Ragweed plant response rating,[10]; [22],90
same,"Ryegrass, Italian plant response rating",[11]; [15],90
same,"Plant response rating, Ryegrass, Italian",[11]; [16],95
same,"Plant response rating, Ryegrass, Italian",[11]; [17],95
same,"Plant response rating, Ryegrass, Italian",[11]; [18],90
same,"Plant response rating, Ryegrass, Italian",[11]; [19],95
same,"Plant response rating, Ryegrass, Italian",[11]; [20],95
same,"Ryegrass, Italian plant response rating",[11]; [21],95
same,"Ryegrass, Italian plant response rating",[11]; [22],90
same,Soybean plant response rating,soybean (Glycine max); [15],15
same,"Plant response rating, Soybean",soybean (Glycine max); [16],40
same,"Plant response rating, Soybean",soybean (Glycine max); [17],50
same,"Plant response rating, Soybean",soybean (Glycine max); [18],0
same,"Plant response rating, Soybean",soybean (Glycine max); [19],45
same,"Plant response rating, Soybean",soybean (Glycine max); [20],65
same,Soybean plant response rating,soybean (Glycine max); [21],75
same,Soybean plant response rating,soybean (Glycine max); [22],20
same,Velvetleaf plant response rating,[12]; [15],40
same,"Plant response rating, Velvetleaf",[12]; [16],90
same,"Plant response rating, Velvetleaf",[12]; [17],95
same,"Plant response rating, Velvetleaf",[12]; [18],75
same,"Plant response rating, Velvetleaf",[12]; [19],85
same,"Plant response rating, Velvetleaf",[12]; [20],95
same,Velvetleaf plant response rating,[12]; [21],98
same,Velvetleaf plant response rating,[12]; [22],85
same,Waterhemp plant response rating,[13]; [15],65
same,"Plant response rating, Waterhemp",[13]; [16],98
same,"Plant response rating, Waterhemp",[13]; [17],98
same,"Plant response rating, Waterhemp",[13]; [18],100
same,"Plant response rating, Waterhemp",[13]; [19],100
same,"Plant response rating, Waterhemp",[13]; [20],100
same,Waterhemp plant response rating,[13]; [21],100
same,Waterhemp plant response rating,[13]; [22],90
same,Wheat plant response rating,[14]; [15],5
same,"Plant response rating, Wheat",[14]; [16],30
same,"Plant response rating, Wheat",[14]; [17],15
same,"Plant response rating, Wheat",[14]; [18],10
same,"Plant response rating, Wheat",[14]; [19],40
same,"Plant response rating, Wheat",[14]; [20],45
same,Wheat plant response rating,[14]; [21],70
same,Wheat plant response rating,[14]; [22],5
Cc1nn(C)c(=O)c(-c2c(C)sc3ccccc23)c1O [Compound 65],Barnyardgrass plant response rating,[1]; [15],10
same,"Plant response rating, Barnyardgrass",[1]; [16],35
same,"Plant response rating, Barnyardgrass",[1]; [17],50
same,Barnyardgrass plant response rating,[1]; [22],15
same,Blackgrass plant response rating,[2]; [15],5
same,"Plant response rating, Blackgrass",[2]; [16],10
same,"Plant response rating, Blackgrass",[2]; [17],40
same,Blackgrass plant response rating,[2]; [22],5
same,Corn plant response rating,corn (Zea mays); [15],5
same,"Plant response rating, Corn",corn (Zea mays); [16],5
same,"Plant response rating, Corn",corn (Zea mays); [17],5
same,Corn plant response rating,corn (Zea mays); [22],5
same,"Foxtail, Giant plant response rating",[3]; [15],10
same,"Plant response rating, Foxtail, Giant",[3]; [16],35
same,"Plant response rating, Foxtail, Giant",[3]; [17],60
same,"Foxtail, Giant plant response rating",[3]; [22],20
same,Galium plant response rating,[4]; [15],85
same,"Plant response rating, Galium",[4]; [16],90
same,"Plant response rating, Galium",[4]; [17],90
same,Galium plant response rating,[4]; [22],85
same,Johnsongrass plant response rating,[5]; [15],5
same,"Plant response rating, Johnsongrass",[5]; [16],5
same,"Plant response rating, Johnsongrass",[5]; [17],5
same,Johnsongrass plant response rating,[5]; [22],5
same,Lambsquarters plant response rating,[6]; [15],90
same,"Plant response rating, Lambsquarters",[6]; [16],95
same,"Plant response rating, Lambsquarters",[6]; [17],100
same,Lambsquarters plant response rating,[6]; [22],95
same,Morningglory plant response rating,[7]; [15],75
same,"Plant response rating, Morningglory",[7]; [16],95
same,"Plant response rating, Morningglory",[7]; [17],95
same,Morningglory plant response rating,[7]; [22],85
same,"Nutsedge, Yellow plant response rating",[8]; [15],25
same,"Plant response rating, Nutsedge, Yellow",[8]; [16],60
same,"Plant response rating, Nutsedge, Yellow",[8]; [17],65
same,"Nutsedge, Yellow plant response rating",[8]; [22],50
same,Pigweed plant response rating,[9]; [15],90
same,"Plant response rating, Pigweed",[9]; [16],98
same,"Plant response rating, Pigweed",[9]; [17],100
same,Pigweed plant response rating,[9]; [22],90
same,Ragweed plant response rating,[10]; [15],55
same,"Plant response rating, Ragweed",[10]; [16],80
same,"Plant response rating, Ragweed",[10]; [17],90
same,Ragweed plant response rating,[10]; [22],85
same,"Ryegrass, Italian plant response rating",[11]; [15],65
same,"Plant response rating, Ryegrass, Italian",[11]; [16],85
same,"Plant response rating, Ryegrass, Italian",[11]; [17],85
same,"Ryegrass, Italian plant response rating",[11]; [22],80
same,Soybean plant response rating,soybean (Glycine max); [15],5
same,"Plant response rating, Soybean",soybean (Glycine max); [16],5
same,"Plant response rating, Soybean",soybean (Glycine max); [17],10
same,Soybean plant response rating,soybean (Glycine max); [22],5
same,Velvetleaf plant response rating,[12]; [15],10
same,"Plant response rating, Velvetleaf",[12]; [16],65
same,"Plant response rating, Velvetleaf",[12]; [17],75
same,Velvetleaf plant response rating,[12]; [22],20
same,Waterhemp plant response rating,[13]; [15],60
same,"Plant response rating, Waterhemp",[13]; [16],75
same,"Plant response rating, Waterhemp",[13]; [17],85
same,Waterhemp plant response rating,[13]; [22],75
same,Wheat plant response rating,[14]; [15],0
same,"Plant response rating, Wheat",[14]; [16],0
same,"Plant response rating, Wheat",[14]; [17],0
same,Wheat plant response rating,[14]; [22],0
